Measured values: ChEMBL document CHEMBL5576101, “Discovery of 1,2,3-triazole-based pleuromutilin derivatives as potent gram-positive antibacterial agents” (2024)
Values after ≈ are worked out from the molar mass of the structure shown. Active and inactive are the calls of the source. The calls are words filed in the database; no cut-off is given here.

Assays:
[1] = test system: Staphylococcus epidermidis; assay: Bacteriostatic activity against Staphylococcus epidermidis assessed as reduction in bacterial growth at 1 times MIC measured after 24 hrs by time kill assay; type: functional, organism-based
[2] = test system: Staphylococcus epidermidis; assay: Antibacterial activity against Staphylococcus epidermidis by broth dilution method; type: functional
[3] = test system: Escherichia coli; assay: Antibacterial activity against Escherichia coli by broth dilution method; type: functional
[4] = test system: Staphylococcus aureus; assay: Antibacterial activity against Staphylococcus aureus by broth dilution method; type: functional
[5] = test system: Staphylococcus aureus; assay: Bacteriostatic activity against Staphylococcus aureus assessed as reduction in bacterial growth at 1 times MIC measured after 24 hrs by time kill assay; type: functional, organism-based
[6] = test system: Staphylococcus aureus; assay: Bacteriostatic activity against methicillin-resistant Staphylococcus aureus assessed as log reduction in viable cell count at 6 times MIC measured after 24 hrs by time kill assay; type: functional
[7] = test system: Enterococcus faecalis; assay: Antibacterial activity against Enterococcus faecalis by broth dilution method; type: functional
[8] = test system: Staphylococcus aureus; assay: Antibacterial activity against methicillin-resistant Staphylococcus aureus by broth dilution method; type: functional
[9] = test system: Staphylococcus aureus; assay: Bacteriostatic activity against methicillin-resistant Staphylococcus aureus assessed as reduction in bacterial growth at 1 times MIC measured after 24 hrs by time kill assay; type: functional, organism-based
[10] = test system: Staphylococcus aureus; assay: Bacteriostatic activity against Staphylococcus aureus assessed as log reduction in viable cell count at 6 times MIC measured after 24 hrs by time kill assay; type: functional
[11] = test system: Staphylococcus epidermidis; assay: Bacteriostatic activity against Staphylococcus epidermidis assessed as log reduction in bacterial growth at 6 times MIC measured after 24 hrs by time kill assay; type: functional
[12] = test system: Staphylococcus aureus; assay: Potency index, ratio of tiamulin MIC to test compound MIC for antibacterial activity methicillin-resistant Staphylococcus aureus by broth dilution method; type: functional
[13] = test system: Staphylococcus aureus; assay: Bacteriostatic activity against Staphylococcus aureus assessed as log reduction in bacterial growth at 4 times MIC measured after 24 hrs by time kill assay; type: functional
[14] = test system: Staphylococcus aureus; assay: Bacteriostatic activity against Staphylococcus aureus assessed as log reduction in bacterial growth at 2 times MIC measured after 24 hrs by time kill assay; type: functional
[15] = test system: Staphylococcus aureus; assay: Potency index, ratio of tiamulin MIC to test compound MIC for antibacterial activity Staphylococcus aureus by broth dilution method; type: functional
[16] = test system: Staphylococcus epidermidis; assay: Potency index, ratio of tiamulin MIC to test compound MIC for antibacterial activity Staphylococcus epidermidis by broth dilution method; type: functional
[17] = test system: Enterococcus faecalis; assay: Potency index, ratio of tiamulin MIC to test compound MIC for antibacterial activity Enterococcus faecalis by broth dilution method; type: functional

Structure (SMILES): C=C[C@]1(C)C[C@@H](OC(=O)CSC(C)(C)CNC(=O)Cn2cc(Cc3cccc(N)c3)nn2)[C@]2(C)[C@H](C)CC[C@]3(CCC(=O)[C@H]32)[C@@H](C)[C@@H]1O
- Activity [1]: Active
- MIC [2]: 0.062 µg/mL (≈ 0.0912 µM)
- MIC [3]: > 64 µg/mL
- MIC [4]: > 64 µg/mL
- Activity [5]: Active
- log(activity) [6]: 4.3
- MIC [7]: > 64 µg/mL
- MIC [8]: 0.062 µg/mL (≈ 0.0912 µM)
- Activity [9]: Active
- log(activity) [10]: 4.1

Structure (SMILES): C=C[C@]1(C)C[C@@H](OC(=O)CSC(C)(C)CNC(=O)Cn2cc(Cc3ccc(OC)cc3)nn2)[C@]2(C)[C@H](C)CC[C@]3(CCC(=O)[C@H]32)[C@@H](C)[C@@H]1O
- MIC [2]: 0.5 µg/mL (≈ 0.719 µM)
- MIC [3]: > 64 µg/mL
- MIC [4]: 0.5 µg/mL (≈ 0.719 µM)
- MIC [7]: 1 µg/mL (≈ 1.44 µM)
- MIC [8]: > 64 µg/mL

Structure (SMILES): C=C[C@]1(C)C[C@@H](OC(=O)CSC(C)(C)CNC(=O)Cn2cc(CNc3ccc(Cl)cc3)nn2)[C@]2(C)[C@H](C)CC[C@]3(CCC(=O)[C@H]32)[C@@H](C)[C@@H]1O
- MIC [2]: 8 µg/mL (≈ 11.2 µM)
- MIC [3]: > 64 µg/mL
- MIC [4]: 2 µg/mL (≈ 2.8 µM)
- MIC [7]: 64 µg/mL (≈ 89.6 µM)
- MIC [8]: 8 µg/mL (≈ 11.2 µM)

Structure (SMILES): C=C[C@]1(C)C[C@@H](OC(=O)CSC(C)(C)CNC(=O)Cn2cc(COc3ccc(C)cc3)nn2)[C@]2(C)[C@H](C)CC[C@]3(CCC(=O)[C@H]32)[C@@H](C)[C@@H]1O
- MIC [2]: 0.062 µg/mL (≈ 0.0892 µM)
- MIC [3]: > 64 µg/mL
- MIC [4]: > 64 µg/mL
- MIC [7]: 16 µg/mL (≈ 23 µM)
- MIC [8]: 0.062 µg/mL (≈ 0.0892 µM)

Structure (SMILES): C=C[C@]1(C)C[C@@H](OC(=O)CSC(C)(C)CNC(=O)Cn2cc(Cc3ccccc3)nn2)[C@]2(C)[C@H](C)CC[C@]3(CCC(=O)[C@H]32)[C@@H](C)[C@@H]1O
- MIC [2]: 4 µg/mL (≈ 6.02 µM)
- MIC [3]: > 64 µg/mL
- MIC [4]: 16 µg/mL (≈ 24.1 µM)
- MIC [7]: 64 µg/mL (≈ 96.3 µM)
- MIC [8]: 4 µg/mL (≈ 6.02 µM)

Structure (SMILES): C=C[C@]1(C)C[C@@H](OC(=O)CSC(C)(C)CNC(=O)Cn2cc(CNc3ccc(CCCCCC)cc3)nn2)[C@]2(C)[C@H](C)CC[C@]3(CCC(=O)[C@H]32)[C@@H](C)[C@@H]1O
- MIC [2]: 2 µg/mL (≈ 2.62 µM)
- MIC [3]: > 64 µg/mL
- MIC [4]: 32 µg/mL (≈ 41.9 µM)
- MIC [7]: > 64 µg/mL
- MIC [8]: 8 µg/mL (≈ 10.5 µM)

Structure (SMILES): C=C[C@]1(C)C[C@@H](OC(=O)CSCCN(CC)CC)[C@]2(C)[C@H](C)CC[C@]3(CCC(=O)[C@H]32)[C@@H](C)[C@@H]1O [TIAMULIN]
- MIC [2]: 0.5 µg/mL (≈ 1.01 µM)
- MIC [3]: > 64 µg/mL
- MIC [4]: 4 µg/mL (≈ 8.1 µM)
- MIC [7]: 32 µg/mL (≈ 64.8 µM)
- MIC [8]: 0.25 µg/mL (≈ 0.506 µM)

Structure (SMILES): C=C[C@]1(C)C[C@@H](OC(=O)CSC(C)(C)CNC(=O)Cn2cc(CC3CC3)nn2)[C@]2(C)[C@H](C)CC[C@]3(CCC(=O)[C@H]32)[C@@H](C)[C@@H]1O
- MIC [2]: 0.5 µg/mL (≈ 0.795 µM)
- MIC [3]: > 64 µg/mL
- MIC [4]: 4 µg/mL (≈ 6.36 µM)
- MIC [7]: 64 µg/mL (≈ 102 µM)
- MIC [8]: 8 µg/mL (≈ 12.7 µM)

Structure (SMILES): C=C[C@]1(C)C[C@@H](OC(=O)CSC(C)(C)CNC(=O)Cn2cc(CNc3ccc(OC)cc3)nn2)[C@]2(C)[C@H](C)CC[C@]3(CCC(=O)[C@H]32)[C@@H](C)[C@@H]1O
- MIC [2]: 2 µg/mL (≈ 2.82 µM)
- MIC [3]: > 64 µg/mL
- MIC [4]: 4 µg/mL (≈ 5.63 µM)
- MIC [7]: 64 µg/mL (≈ 90.1 µM)
- MIC [8]: 4 µg/mL (≈ 5.63 µM)

Structure (SMILES): C=C[C@]1(C)C[C@@H](OC(=O)CSC(C)(C)CNC(=O)Cn2cc(CNc3ccc(Br)cc3)nn2)[C@]2(C)[C@H](C)CC[C@]3(CCC(=O)[C@H]32)[C@@H](C)[C@@H]1O
- MIC [2]: 16 µg/mL (≈ 21.1 µM)
- MIC [3]: > 64 µg/mL
- MIC [4]: > 64 µg/mL
- MIC [7]: > 64 µg/mL
- MIC [8]: 64 µg/mL (≈ 84.3 µM)

Structure (SMILES): C=C[C@]1(C)C[C@@H](OC(=O)CSC(C)(C)CNC(=O)Cn2cc(CNc3ccc(C)cc3)nn2)[C@]2(C)[C@H](C)CC[C@]3(CCC(=O)[C@H]32)[C@@H](C)[C@@H]1O
- MIC [2]: 2 µg/mL (≈ 2.88 µM)
- MIC [3]: > 64 µg/mL
- MIC [4]: 16 µg/mL (≈ 23.1 µM)
- MIC [7]: 64 µg/mL (≈ 92.2 µM)
- MIC [8]: 16 µg/mL (≈ 23.1 µM)

Structure (SMILES): C=C[C@]1(C)C[C@@H](OC(=O)CSC(C)(C)CNC(=O)Cn2cc(CNc3ccc(CCC)cc3)nn2)[C@]2(C)[C@H](C)CC[C@]3(CCC(=O)[C@H]32)[C@@H](C)[C@@H]1O
- MIC [2]: 16 µg/mL (≈ 22.2 µM)
- MIC [3]: > 64 µg/mL
- MIC [4]: 32 µg/mL (≈ 44.3 µM)
- MIC [7]: > 64 µg/mL
- MIC [8]: 4 µg/mL (≈ 5.54 µM)

Structure (SMILES): C=C[C@]1(C)C[C@@H](OC(=O)CSC(C)(C)CNC(=O)Cn2cc(CNc3ccc(OCCCCCC)cc3)nn2)[C@]2(C)[C@H](C)CC[C@]3(CCC(=O)[C@H]32)[C@@H](C)[C@@H]1O
- MIC [2]: 0.5 µg/mL (≈ 0.641 µM)
- MIC [3]: > 64 µg/mL
- MIC [4]: > 64 µg/mL
- MIC [7]: 0.062 µg/mL (≈ 0.0795 µM)
- MIC [8]: 16 µg/mL (≈ 20.5 µM)

Structure (SMILES): C=C[C@]1(C)C[C@@H](OC(=O)CSC(C)(C)CNC(=O)Cn2cc(COc3ccc([N+](=O)[O-])cc3)nn2)[C@]2(C)[C@H](C)CC[C@]3(CCC(=O)[C@H]32)[C@@H](C)[C@@H]1O
- MIC [2]: 1 µg/mL (≈ 1.38 µM)
- MIC [3]: > 64 µg/mL
- MIC [4]: 4 µg/mL (≈ 5.51 µM)
- MIC [7]: 64 µg/mL (≈ 88.2 µM)
- MIC [8]: 4 µg/mL (≈ 5.51 µM)

Structure (SMILES): C=C[C@]1(C)C[C@@H](OC(=O)CSC(C)(C)CNC(=O)Cn2cc(COc3ccccc3)nn2)[C@]2(C)[C@H](C)CC[C@]3(CCC(=O)[C@H]32)[C@@H](C)[C@@H]1O
- MIC [2]: 8 µg/mL (≈ 11.7 µM)
- MIC [3]: > 64 µg/mL
- MIC [4]: 64 µg/mL (≈ 94 µM)
- MIC [7]: 16 µg/mL (≈ 23.5 µM)
- MIC [8]: 8 µg/mL (≈ 11.7 µM)

Structure (SMILES): C=C[C@]1(C)C[C@@H](OC(=O)CSC(C)(C)CNC(=O)Cn2cc(CNc3ccc([N+](=O)[O-])cc3)nn2)[C@]2(C)[C@H](C)CC[C@]3(CCC(=O)[C@H]32)[C@@H](C)[C@@H]1O
- Activity [1]: Active
- MIC [2]: 0.125 µg/mL (≈ 0.172 µM)
- MIC [3]: > 64 µg/mL
- MIC [4]: 64 µg/mL (≈ 88.3 µM)
- Activity [5]: Active
- MIC [7]: 2 µg/mL (≈ 2.76 µM)
- MIC [8]: 0.25 µg/mL (≈ 0.345 µM)
- Activity [9]: Active
- log(activity) [11]: 4.4

Structure (SMILES): C=C[C@]1(C)C[C@@H](OC(=O)CSC(C)(C)CNC(=O)Cn2cc(COc3ccc([N+](=O)[O-])cc3[N+](=O)[O-])nn2)[C@]2(C)[C@H](C)CC[C@]3(CCC(=O)[C@H]32)[C@@H](C)[C@@H]1O
- Activity [1]: Active
- Ratio [12]: 4
- log(activity) [13]: 3.38
- log(activity) [14]: 1.98
- MIC [2]: 0.062 µg/mL (≈ 0.0804 µM)
- MIC [3]: > 64 µg/mL
- MIC [4]: 0.062 µg/mL (≈ 0.0804 µM)
- Activity [5]: Active
- Ratio [15]: 64
- log(activity) [6]: 4.3
- MIC [7]: 0.25 µg/mL (≈ 0.324 µM)
- Ratio [16]: 8
- MIC [8]: 0.062 µg/mL (≈ 0.0804 µM)
- Activity [9]: Active
- Ratio [17]: 128
- log(activity) [10]: 4.1

Structure (SMILES): C=C[C@]1(C)C[C@@H](OC(=O)CSC(C)(C)CNC(=O)Cn2cc(Cc3cccnc3)nn2)[C@]2(C)[C@H](C)CC[C@]3(CCC(=O)[C@H]32)[C@@H](C)[C@@H]1O
- MIC [2]: 0.25 µg/mL (≈ 0.375 µM)
- MIC [3]: > 64 µg/mL
- MIC [4]: 16 µg/mL (≈ 24 µM)
- MIC [7]: 0.062 µg/mL (≈ 0.0931 µM)
- MIC [8]: 2 µg/mL (≈ 3 µM)
